Measured values as given in PubChem BioAssay AID226 (DTP/NCI, 2004).
“And” between values parts separate entries of the source, which are not always exact repeats. Equal values may be shown once. Toxic doses and inconclusive results are not listed. How the source made its calls: active means survival T/C of 150% or more; inactive means T/C below 125% in these data.

Test system: B6C3F1 mice, intracerebral ependymoblastoma, median survival T/C
Experiment: NCI In Vivo Anticancer Drug Screen. Data for tumor model Ependymoblastoma (intracerebral) in B6C3F1 mice
Conditions: endpoint: median survival time, higher = longer survival
Method: The antitumor activity of compounds was measured in mice bearing transplantable tumors. Survival or tumor size were measured and the results are expressed as the measurement made in the treated group (T) divided by the measurement made in the vehicle treated control group (C). The tumor model used in this assay is Ependymoblastoma (intracerebral) in B6C3F1 mice

[1] = dose: 6.25 mg/kg/injection, schedule: Q01DX005 (ip), vehicle: saline with Tween-80
[2] = dose: 12.5 mg/kg/injection, schedule: Q01DX005 (ip), vehicle: saline with Tween-80
[3] = dose: 25.0 mg/kg/injection, schedule: Q01DX005 (ip), vehicle: saline with Tween-80
[4] = dose: 50.0 mg/kg/injection, schedule: Q01DX005 (ip), vehicle: saline with Tween-80
[5] = dose: 100.0 mg/kg/injection, schedule: Q01DX005 (ip), vehicle: saline with Tween-80
[6] = dose: 1.0 mg/kg/injection, schedule: Q01DX005 (ip), vehicle: saline
[7] = dose: 2.0 mg/kg/injection, schedule: Q01DX005 (ip), vehicle: saline
[8] = dose: 1.0 mg/kg/injection, schedule: Q01DX005 (ip), vehicle: Klucel (hydroxypropylcellulose) (HPC)
[9] = dose: 2.0 mg/kg/injection, schedule: Q01DX005 (ip), vehicle: Klucel (hydroxypropylcellulose) (HPC)
[10] = dose: 4.0 mg/kg/injection, schedule: Q01DX005 (ip), vehicle: Klucel (hydroxypropylcellulose) (HPC)
[11] = dose: 8.0 mg/kg/injection, schedule: Q01DX005 (ip), vehicle: Klucel (hydroxypropylcellulose) (HPC)

Measured: T/C

CC1(C)OC2C(COC(=O)c3ccc([N+](=O)[O-])cc3)OC(NC(=O)N(CCCl)N=O)C2O1 (configuration not stated)
inactive: dose: 5.0 mg/kg/injection, schedule: Q01DX009 (ip), vehicle: saline 100 % of control
active: dose: 10.0 mg/kg/injection, schedule: Q01DX009 (ip), vehicle: saline 207 % of control | dose: 12.5 mg/kg/injection, schedule: Q01DX009 (ip), vehicle: saline with Tween-80 195 % of control | dose: 25.0 mg/kg/injection, schedule: Q01DX009 (ip), vehicle: saline with Tween-80 248 % of control

CN=S(=O)(OCCCCCOS(=O)(=NC)c1ccccc1)c1ccccc1 (configuration not stated)
inactive: [1] 110 % of control | [2] 100 % of control | [3] 95 % of control and 106 % of control | [4] 111 % of control and 112 % of control | [5] 101 % of control and 123 % of control

O=C1C(NCCO)=C(N2CC2)C(=O)C(NCCO)=C1N1CC1
inactive: dose: 0.06 mg/kg/injection, schedule: Q01DX005 (ip), vehicle: saline 112 % of control | dose: 0.12 mg/kg/injection, schedule: Q01DX005 (ip), vehicle: saline 113 % of control | dose: 0.19 mg/kg/injection, schedule: Q01DX005 (ip), vehicle: saline 96 % of control | dose: 0.25 mg/kg/injection, schedule: Q01DX005 (ip), vehicle: saline 91 % of control and 120 % of control | dose: 0.38 mg/kg/injection, schedule: Q01DX005 (ip), vehicle: saline 100 % of control | dose: 0.5 mg/kg/injection, schedule: Q01DX005 (ip), vehicle: saline 106 % of control | dose: 0.75 mg/kg/injection, schedule: Q01DX005 (ip), vehicle: saline 117 % of control | [6] 114 % of control | dose: 1.5 mg/kg/injection, schedule: Q01DX005 (ip), vehicle: saline 120 % of control | [7] 110 % of control

Nc1ncnc2c1ncn2C1OC(COP(=O)(O)O)C(O)C1O (configuration not stated)
inactive: dose: 25.0 mg/kg/injection, schedule: Q01DX005 (ip), vehicle: saline 100 % of control | dose: 50.0 mg/kg/injection, schedule: Q01DX005 (ip), vehicle: saline 106 % of control and 107 % of control | dose: 100.0 mg/kg/injection, schedule: Q01DX005 (ip), vehicle: saline 105 % of control and 112 % of control | dose: 200.0 mg/kg/injection, schedule: Q01DX005 (ip), vehicle: saline 107 % of control and 109 % of control | dose: 400.0 mg/kg/injection, schedule: Q01DX005 (ip), vehicle: saline 106 % of control and 112 % of control | dose: 800.0 mg/kg/injection, schedule: Q01DX005 (ip), vehicle: saline 117 % of control

O=C1NC2(CCCCC2)C(=O)N1CCN(CCCl)CCCl
inactive: [8] 116 % of control | [6] 99 % of control and 103 % of control and 107 % of control | dose: 1.5 mg/kg/injection, schedule: Q01DX005 (ip), vehicle: Klucel (hydroxypropylcellulose) (HPC) 101 % of control | dose: 1.56 mg/kg/injection, schedule: Q01DX005 (ip), vehicle: Klucel (hydroxypropylcellulose) (HPC) 100 % of control | [9] 99 % of control | dose: 2.5 mg/kg/injection, schedule: Q01DX005 (ip), vehicle: other 97 % of control | dose: 2.5 mg/kg/injection, schedule: Q01DX005 (ip), vehicle: saline 100 % of control | dose: 3.0 mg/kg/injection, schedule: Q01DX005 (ip), vehicle: Klucel (hydroxypropylcellulose) (HPC) 110 % of control | dose: 3.12 mg/kg/injection, schedule: Q01DX005 (ip), vehicle: Klucel (hydroxypropylcellulose) (HPC) 101 % of control | [10] 117 % of control | dose: 5.0 mg/kg/injection, schedule: Q01DX005 (ip), vehicle: other 112 % of control | dose: 5.0 mg/kg/injection, schedule: Q01DX005 (ip), vehicle: saline 98 % of control | dose: 6.0 mg/kg/injection, schedule: Q01DX005 (ip), vehicle: Klucel (hydroxypropylcellulose) (HPC) 111 % of control | dose: 6.0 mg/kg/injection, schedule: Q01DX005 (oral), vehicle: Klucel (hydroxypropylcellulose) (HPC) 105 % of control and 88 % of control | dose: 6.25 mg/kg/injection, schedule: Q01DX005 (ip), vehicle: Klucel (hydroxypropylcellulose) (HPC) 105 % of control | [11] 112 % of control | dose: 10.0 mg/kg/injection, schedule: Q01DX005 (ip), vehicle: saline 98 % of control | dose: 12.0 mg/kg/injection, schedule: Q01DX005 (oral), vehicle: Klucel (hydroxypropylcellulose) (HPC) 87 % of control | dose: 24.0 mg/kg/injection, schedule: Q01DX005 (oral), vehicle: Klucel (hydroxypropylcellulose) (HPC) 92 % of control and 100 % of control | dose: 48.0 mg/kg/injection, schedule: Q01DX005 (oral), vehicle: Klucel (hydroxypropylcellulose) (HPC) 101 % of control | dose: 96.0 mg/kg/injection, schedule: Q01DX005 (oral), vehicle: Klucel (hydroxypropylcellulose) (HPC) 97 % of control

CCCCCN(C)/N=N/c1nc[nH]c1C(N)=O
active: dose: 64.0 mg/kg/injection, schedule: Q01DX005 (ip), vehicle: saline with Tween-80 153 % of control | dose: 128.0 mg/kg/injection, schedule: Q01DX005 (ip), vehicle: saline with Tween-80 160 % of control

COc1cc(NS(C)(=O)=O)ccc1Nc1c2ccccc2nc2ccccc12
inactive: [8] 110 % of control | [6] 103 % of control and 104 % of control | dose: 1.0 mg/kg/injection, schedule: Q01DX005 (ip), vehicle: water 94 % of control and 96 % of control (2×) | [9] 99 % of control | [7] 107 % of control and 112 % of control | dose: 2.0 mg/kg/injection, schedule: Q01DX005 (ip), vehicle: water 94 % of control and 100 % of control and 101 % of control | [10] 103 % of control | dose: 4.0 mg/kg/injection, schedule: Q01DX005 (ip), vehicle: saline 103 % of control | dose: 4.0 mg/kg/injection, schedule: Q01DX005 (ip), vehicle: water 96 % of control and 100 % of control and 108 % of control | dose: 8.0 mg/kg/injection, schedule: Q01DX005 (ip), vehicle: saline 106 % of control and 112 % of control | dose: 8.0 mg/kg/injection, schedule: Q01DX005 (ip), vehicle: water 100 % of control and 107 % of control and 112 % of control

NC(=S)Nc1cccc2ccccc12
inactive: dose: 1.56 mg/kg/injection, schedule: Q01DX005 (ip), vehicle: saline with Tween-80 92 % of control | dose: 3.12 mg/kg/injection, schedule: Q01DX005 (ip), vehicle: saline with Tween-80 100 % of control and 88 % of control | [1] 92 % of control and 93 % of control | [2] 91 % of control | [3] 88 % of control and 89 % of control | [4] 91 % of control

Cc1c2ccncc2c(C)c2c1[nH]c1ccccc12
inactive: dose: 128.0 mg/kg/injection, schedule: Q01DX001 (ip), vehicle: Klucel (hydroxypropylcellulose) (HPC) 112 % of control

Cc1[nH]c(=O)[nH]c(=O)c1N(CCF)CCCl
inactive: [9] 90 % of control | dose: 2.0 mg/kg/injection, schedule: Q01DX005 (ip), vehicle: saline with Tween-80 98 % of control and 100 % of control | [10] 93 % of control and 108 % of control | dose: 4.0 mg/kg/injection, schedule: Q01DX005 (ip), vehicle: saline with Tween-80 102 % of control and 105 % of control | [11] 97 % of control and 114 % of control | dose: 8.0 mg/kg/injection, schedule: Q01DX005 (ip), vehicle: saline with Tween-80 96 % of control and 100 % of control | dose: 16.0 mg/kg/injection, schedule: Q01DX005 (ip), vehicle: Klucel (hydroxypropylcellulose) (HPC) 107 % of control and 89 % of control | dose: 16.0 mg/kg/injection, schedule: Q01DX005 (ip), vehicle: saline with Tween-80 106 % of control and 107 % of control | dose: 32.0 mg/kg/injection, schedule: Q01DX005 (ip), vehicle: Klucel (hydroxypropylcellulose) (HPC) 94 % of control and 123 % of control | dose: 32.0 mg/kg/injection, schedule: Q01DX005 (ip), vehicle: saline with Tween-80 100 % of control

Nc1ccc(S(N)(=O)=O)cc1
inactive: [3] 98 % of control | [4] 96 % of control and 103 % of control | [5] 101 % of control and 103 % of control | dose: 200.0 mg/kg/injection, schedule: Q01DX005 (ip), vehicle: saline with Tween-80 92 % of control and 102 % of control | dose: 400.0 mg/kg/injection, schedule: Q01DX005 (ip), vehicle: saline with Tween-80 101 % of control and 107 % of control | dose: 800.0 mg/kg/injection, schedule: Q01DX005 (ip), vehicle: saline with Tween-80 95 % of control
